Reference: patent publication US4810636A, “Chromogenic acridinone enzyme substrates” (Miles Inc., priority 1987, dated 1989)
Where “and” joins values, the source holds several entries; their conditions need not be identical. Identical values can stand only once.

Tests used:
Assay type in all cases: biochemical
[1] = tested on: alkaline phosphatase; assay: Hydrolysis of the phosphate substrate by alkaline phosphatase (KM, Kcat); conditions: 1.0M diethanolamine buffer (pH=9.8) containing 5.0 mM MgCl2
[2] = tested on: α-amylase; assay: Liquid analytical test system for the detection of α-amylase; conditions: for Absorbance (634 nm): 37° C.; for Absorbance/Minute: average of three consecutive readings between 3 and 6 minutes
Procedure: A liquid α-amylase detection reagent was prepared by combining 1.8 mM DMA-G7 (43) prepared according to Example 9, 38 units of α-glucosidase and 20 units of β-glucosidase in 1.0 mL of buffered solution comprising 50 mM PIPES, 50 mM NaCl, and 5.0 mM calcium chloride (pH 7.0). Amylase control serum (0.025 mL) containing 37 IU/L, 175 IU/L, and 313 IU/L, respectively, of α-amylase were added to the detection reagent, independently, and incubated at 37° C. The enzymatic action of α-amylase on the substrate compound in each of the mixtures liberated shorter chain chromogenic maltooligosaccharide compounds thereof (e.g., DMA-G2 to DMA-G4) which, in turn, was enzymatically acted upon by the α-glucosidase and β-glucosidaseto liberate the optically active form of the dimethyl acridinone chromogen (20). The rate of color change produced by the liberated chromogen in each of the mixtures was measured at 634 nm on a Cary 219 spectrophotometer (Varian Associates, Inc., Sonnyvale, Calif., U.S.A.) from between 1 and 9 minutes after each of the serum samples were added to the detection reagent (Table 2).

[3] = tested on: α-amylase; assay: Analytical test device for the detection of α-amylase, reflectance; conditions: for Reactivity × 10^-2: linear regression of L(R) between 180 and 200 seconds, 630 nm
Procedure: A sheet of Whatman 54 filter paper (Whatman, Inc., Clifton, N.J., U.S.A.) was immersed into a solution comprising the liquid α-amylase detection reagent prepared according to Example 10, 0.1% Triton X-100 (Sigma Chemical Co., St. Louis, Mo., U.S.A.) and 0.5% carboxycellulose, and dried.
Analytical test devices were prepared by mounting 0.5 cm wide×1.0 cm long segment of the aforementioned impregnated filter paper onto and along the edge of one surface of 0.5 cm×8.125 cm polystyrene supports (Tricite®, Dow Chemical Co., Midland, Mich., U.S.A.) previously laminated with a 2 mm strip of Double Stick® double-faced adhesive tape (3M Company, St. Paul, Minn., U.S.A.).
Three 30 μL aliquots of undiluted serum containing 39 IU/L, 78 IU/L, 117 IU/L, 157 IU/L, 235 IU/L, and 313 IU/L, respectively, of α-amylase were applied, independently, to a test device and the rate of color change produced by the liberated chromogen on each device was measured at 630 nm on a Seralyzer® reflectance photometer (Miles Inc., Elkhart, Ind., U.S.A.) from between 0 seconds and 240 seconds after the serum sample was added to each test device.

CC1(C)C2=CC(=O)C=CC2=Nc2ccc(OP(=O)(O)O)cc21 [Compound 37, disodium-9,9-dimethyl-9H-acridin-2-one-7-phosphate]
Kcat [1]: 1.94×10^5 mol/min/mol of enzyme | Km [1]: 480 µM

CC1(C)C2=CC(=O)C=CC2=Nc2ccc(O[C@@H]3O[C@H](CO)[C@@H](O[C@H]4O[C@H](CO)[C@@H](O[C@H]5O[C@H](CO)[C@@H](O[C@H]6O[C@H](CO)[C@@H](O[C@H]7O[C@H](CO)[C@@H](O[C@H]8O[C@H](CO)[C@@H](O[C@H]9O[C@H](CO)[C@@H](O)[C@H](O)[C@H]9O)[C@H](O)[C@H]8O)[C@H](O)[C@H]7O)[C@H](O)[C@H]6O)[C@H](O)[C@H]5O)[C@H](O)[C@H]4O)[C@H](O)[C@H]3O)cc21 [DMA-G7, 7-β-maltoheptaosyloxy-9,9-dimethyl-acridin-2-one]
dose response to the α-amylase concentration ([2]; 37-313 IU/L, readings between 3 and 6 minutes): linear dose response | Absorbance (634 nm) ([2]; 37 IU/L α-amylase, 1 minute): 0.123 | Absorbance (634 nm) ([2]; 37 IU/L α-amylase, 2 minutes): 0.129 | Absorbance (634 nm) ([2]; 37 IU/L α-amylase, 3 minutes): 0.138 | Absorbance (634 nm) ([2]; 37 IU/L α-amylase, 4 minutes): 0.148 | Absorbance (634 nm) ([2]; 37 IU/L α-amylase, 5 minutes): 0.160 | Absorbance (634 nm) ([2]; 37 IU/L α-amylase, 6 minutes): 0.172 | Absorbance (634 nm) ([2]; 37 IU/L α-amylase, 7 minutes): 0.187 | Absorbance (634 nm) ([2]; 37 IU/L α-amylase, 8 minutes): 0.202 | Absorbance (634 nm) ([2]; 37 IU/L α-amylase, 9 minutes): 0.218 | Absorbance/Minute ([2]; 37 IU/L α-amylase): 0.011 | Absorbance (634 nm) ([2]; 175 IU/L α-amylase, 1 minute): 0.150 | Absorbance (634 nm) ([2]; 175 IU/L α-amylase, 2 minutes): 0.178 | Absorbance (634 nm) ([2]; 175 IU/L α-amylase, 3 minutes): 0.223 | Absorbance (634 nm) ([2]; 175 IU/L α-amylase, 4 minutes): 0.279 | Absorbance (634 nm) ([2]; 175 IU/L α-amylase, 5 minutes): 0.341 | Absorbance (634 nm) ([2]; 175 IU/L α-amylase, 6 minutes): 0.409 | Absorbance (634 nm) ([2]; 175 IU/L α-amylase, 7 minutes): 0.481 | Absorbance (634 nm) ([2]; 175 IU/L α-amylase, 8 minutes): 0.555 | Absorbance (634 nm) ([2]; 175 IU/L α-amylase, 9 minutes): 0.631 | Absorbance/Minute ([2]; 175 IU/L α-amylase): 0.062 | Absorbance (634 nm) ([2]; 313 IU/L α-amylase, 1 minute): 0.171 | Absorbance (634 nm) ([2]; 313 IU/L α-amylase, 2 minutes): 0.212 | Absorbance (634 nm) ([2]; 313 IU/L α-amylase, 3 minutes): 0.282 | Absorbance (634 nm) ([2]; 313 IU/L α-amylase, 4 minutes): 0.372 | Absorbance (634 nm) ([2]; 313 IU/L α-amylase, 5 minutes): 0.474 | Absorbance (634 nm) ([2]; 313 IU/L α-amylase, 6 minutes): 0.585 | Absorbance (634 nm) ([2]; 313 IU/L α-amylase, 7 minutes): 0.702 | Absorbance (634 nm) ([2]; 313 IU/L α-amylase, 8 minutes): 0.823 | Absorbance (634 nm) ([2]; 313 IU/L α-amylase, 9 minutes): 0.948 | Absorbance/Minute ([2]; 313 IU/L α-amylase): 0.109 | dose response to α-amylase ([3]; 39-313 IU/L α-amylase in undiluted serum): linear dose response | Reactivity × 10^-2 ([3]; 39 IU/L α-amylase serum): 0.384 × 10^-2 and 0.373 × 10^-2 and 0.359 × 10^-2 | Reactivity × 10^-2 ([3]; 78 IU/L α-amylase serum): 0.957 × 10^-2 and 0.941 × 10^-2 and 0.954 × 10^-2 | Reactivity × 10^-2 ([3]; 117 IU/L α-amylase serum): 1.450 × 10^-2 and 1.510 × 10^-2 and 1.430 × 10^-2 | Reactivity × 10^-2 ([3]; 157 IU/L α-amylase serum): 1.781 × 10^-2 and 1.999 × 10^-2 and 1.886 × 10^-2 | Reactivity × 10^-2 ([3]; 235 IU/L α-amylase serum): 2.560 × 10^-2 and 2.596 × 10^-2 and 2.610 × 10^-2 | Reactivity × 10^-2 ([3]; 313 IU/L α-amylase serum): 2.961 × 10^-2 and 2.989 × 10^-2 and 2.916 × 10^-2
